We go through 3 compounds from publication PMC3985514 (Biochemistry, 2014).

The assay deals with Mtb NDH-2 (Mycobacterium tuberculosis, UniProt P95160). Format: biochemical.

“And” between values parts separate entries of the source, which are not always exact repeats. Identical values can stand only once. Like-named read-outs stand apart in the source and are kept apart here.

Sequence of Mtb NDH-2 (P95160 whole entry): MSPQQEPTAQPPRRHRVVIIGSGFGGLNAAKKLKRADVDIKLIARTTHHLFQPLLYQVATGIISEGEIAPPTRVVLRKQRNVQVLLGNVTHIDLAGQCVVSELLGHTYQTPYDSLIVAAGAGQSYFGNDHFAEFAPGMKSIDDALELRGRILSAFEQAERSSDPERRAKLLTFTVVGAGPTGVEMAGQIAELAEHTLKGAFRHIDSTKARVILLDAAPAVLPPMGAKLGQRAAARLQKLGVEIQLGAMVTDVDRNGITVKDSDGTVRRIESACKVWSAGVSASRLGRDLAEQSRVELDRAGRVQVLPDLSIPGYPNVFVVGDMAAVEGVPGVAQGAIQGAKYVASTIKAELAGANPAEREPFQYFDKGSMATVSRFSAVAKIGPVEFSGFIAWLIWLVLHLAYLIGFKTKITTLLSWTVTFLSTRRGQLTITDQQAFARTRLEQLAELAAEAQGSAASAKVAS

A word on the Km: it is the substrate concentration at which the rate is half of its maximum. In the case of `NC(=O)C1=CN([C@@H]2O[C@H](COP(=O)(O)OP(=O)(O)OC[C@H]3O[C@@H](n4cnc5c(N)ncnc54)[C@H](O)[C@@H]3O)[C@@H](O)[C@H]2O)C=CC1` [NADH, nicotinamide adenine dinucleotide, reduced form], the Km by setting is: (read-out: KM for NADH (average), membrane-bound NDH-2 with UQ0, average) 280 µM; (read-out: KM^NADH) 240 µM and 320 µM.

The inhibition is the drop in the measured response relative to a control, in per cent. A low value points to little suppression. Compound `COc1c(O)c(C)c(CC=C(C)C)c(O)c1OC` [UQ1H2] came in with an inhibition (1.0 mM UQ1H2, 0.05 mM UQ1 as electron acceptor, membrane-bound NDH-2) of 30 ± 10%. Moreover, the increase in activity result (UQ0 as electron acceptor, membrane-bound NDH-2) is given as “up to 5 fold”.

For the compound `COC1=C(OC)C(=O)C(C)=CC1=O` [UQ0], the kcat was 570.0 ± 200 s^–1. For the same compound, the kcat ([…], NADH oxidation with the quinone as electron acceptor, [NADH] varied) worked out at 580.0 ± 170 s^–1. In addition, the kcat ([…], ratio plot, [UQ0] = 6.25[NADH]) was found to be 330 ± 15 s^–1. Also, the Vmax (membrane-bound NDH-2, both with and without UQ1H2) worked out at 0.12 ± 0.01 A340 min^–1 nM^–1. In addition, where the note is “read-out: apparent KM value for UQ0, membrane-bound NDH-2, absence of UQ1H2 (Figure 6C)”, the Km is 350 ± 7 µM.
